According to ChEMBL document CHEMBL5357054, “Expanding the Chemical Diversity of Grisechelins via Heterologous Expression” (2024):
≈ marks a conversion by molar mass, not a printed value. Calls of active or inactive are those of the source. No cut-off for these calls is given here.

Legend:
[1] = test system: Mycobacterium tuberculosis; test: Antibacterial activity against autoluminescent Mycobacterium tuberculosis H37Ra by 7H9 broth based assay; assay type: functional
[2] = test system: Acinetobacter baumannii; test: Antibacterial activity against Acinetobacter baumannii ATCC 19606 incubated for 24 hrs by broth microdilution method; assay type: functional, organism-based
[3] = test system: Staphylococcus aureus; test: Antibacterial activity against methicillin resistant Staphylococcus aureus ATCC 43300 incubated for 24 hrs by broth microdilution method; assay type: functional, organism-based

In the case of `O=C(O)c1nc2ccc(Cl)cc2cc1O`, the Activity [1] is reported as “inactive”, the Activity [2] is reported as “inactive” and the Activity [3] is reported as “inactive”.

`NC(=O)c1csc(-c2csc(-c3nc4ccccc4c(Cl)c3O)n2)n1` was tested, and the Activity [1] was “inactive”, the Activity [2] was “inactive” and the Activity [3] was “inactive”.

For `NC(=O)[C@@H]1CSC(c2csc(-c3nc4ccccc4cc3O)n2)=N1`, the Activity [1] was “inactive”, the Activity [2] was “inactive” and the Activity [3] was “inactive”.

For `O=C(OCc1csc(-c2nc3ccc(Cl)cc3c(Cl)c2O)n1)c1ccccc1O`, the Activity [1] was “inactive”, the Activity [2] was “inactive” and the Activity [3] was “inactive”.

`OCc1csc(-c2nc3ccccc3cc2O)n1` was tested, and the Activity [1] was “inactive”, the Activity [2] was “inactive” and the Activity [3] was “inactive”.

`NC(=O)c1nc2ccc(Cl)cc2c(Cl)c1O` was tested, and the Activity [1] was “inactive”, the Activity [2] was “inactive” and the Activity [3] was “inactive”.

In the case of `CC(=O)/C=C/c1csc(-c2nc3ccc(Cl)cc3c(Cl)c2O)n1`, the Activity [1] is reported as “inactive”, the Activity [2] is reported as “inactive” and the Activity [3] is reported as “inactive”.

In the case of `NC(=O)[C@@H]1CSC(c2csc(-c3nc4ccc(Cl)cc4cc3O)n2)=N1`, the Activity [1] is reported as “inactive”, the Activity [2] is reported as “inactive” and the Activity [3] is reported as “inactive”.

With `OCc1csc(-c2nc3ccccc3c(Cl)c2O)n1` the Activity [1] was “inactive”, the Activity [2] was “inactive” and the Activity [3] was “inactive”.

Compound `OCc1csc(-c2nc3ccc(Cl)cc3c(Cl)c2O)n1` has an MIC [1] of 8 µg/mL (≈ 24.5 µM).
